Key:
[1] = test system: spontaneous nephritis in MRL/1 mice; assay: Prevention of spontaneous nephritis in MRL/1 mice (urinary protein, blood urea nitrogen, histopathology); format: in vivo
Method: The effect of 3-OGP on preventing spontaneous nephritis in MRL/1 mice was investigated.
2-B) The preparation of Ex. 6 was orally administrated to test animals--MRL/1 mice of six-week old, 15 for each group--at daily doses of 0.1 mg/kg, 1.0 mg/kg and 10.0 mg/kg calculated as 3-OGP twice a week over 12 weeks. It is noted that this preparation was administrated to each animal in the form of a feed mix. […] In addition, the urea nitrogen content of blood on the day following the final administration were measured to make sero-biochemical as well as histopathological estimations of the action of the 3-OGP compositions on nephritis.
It is noted that the urinary protein was determined with Protein Pretest (made by Wako Junyaku) and the urea nitrogen content of blood was estimated with Urea Nitrogen Test B: Urease/Indophenol Method (made by Wako Junyaku).

[2] = test system: delayed type hypersensitivity reactions (DTH reactions) using sheep red blood cells (SRBCs) as antigens; assay: Delayed type hypersensitivity (DTH) reaction, pododerm swelling, in Sarcoma-180 bearing ICR mice sensitized with SRBCs; format: in vivo; conditions: n = 10; for Pododerm Swelling, Average: Table 1-2 (MGWC 55.5, SMG 115.5)
Method: The effects of 3-OGP, salts and hydroxypropylcellulose incorporated in compositions were investigated by delayed type hypersensitivity reactions (DTH reactions) using sheep red blood cells (SRBCs) as antigens.
Sarcoma-180 cells (10^6) were intraperitoneally transplanted in test animals--ICR mice (seven-week old), 10 for each group. Then, SRBCs (10^6) were injected into each animal through the vein of the tail for sensitization.
Four days later, SRBCs (2×10^8) were injected into the pododerm of the right hind leg to induce the DTH reaction and, 24 hours later, the thickness of the pododerm was measured. Note that the test drugs were administrated to the animals in the form of a feed mix 4 days before sensitization.

## 3-oxygermylpropionic acid [Example 3-OGP]
[1]; 10 mg/kg of 3-OGP
  increase in urea nitrogen content of blood: significantly inhibited
[1]; 10 mg/kg of 3-OGP, after 12 weeks
  increase in urinary protein: significantly inhibited even after 12 weeks
[1]; group treated with 3-OGP, control 60%
  glomeruli with lesion severer than mediocre membranous glomerulonephritis: 20-36%
[1]; groups treated with 3-OGP, control increased after 9 to 10 weeks
  urinary protein increase: any urinary protein increase was not found
[1]; preparation of Ex. 6, 0.1 mg/kg as 3-OGP, after 10 weeks, positive = 100 mg/dl or more (control 52.3)
  Urinary Protein in %: 28.7%
[1]; preparation of Ex. 6, 0.1 mg/kg as 3-OGP, after 11 weeks (control 66.6)
  Urinary Protein in %: 47.1%
[1]; preparation of Ex. 6, 0.1 mg/kg as 3-OGP, after 12 weeks (control 91.3)
  Urinary Protein in %: 65.6%
[1]; preparation of Ex. 6, 1 mg/kg as 3-OGP, after 10 weeks (control 52.3)
  Urinary Protein in %: 28.1%
[1]; preparation of Ex. 6, 1 mg/kg as 3-OGP, after 11 weeks (control 66.6)
  Urinary Protein in %: 23.8%
[1]; preparation of Ex. 6, 1 mg/kg as 3-OGP, after 12 weeks (control 91.3)
  Urinary Protein in %: 51.0%
[1]; preparation of Ex. 6, 10 mg/kg as 3-OGP, after 10 weeks (control 52.3)
  Urinary Protein in %: 15.8%
[1]; preparation of Ex. 6, 10 mg/kg as 3-OGP, after 11 weeks (control 66.6)
  Urinary Protein in %: 27.5%
[1]; preparation of Ex. 6, 10 mg/kg as 3-OGP, after 12 weeks (control 91.3)
  Urinary Protein in %: 53.3%
[2]; Table 1-1, first series (MGWC 47.1, SMG 115.4), 0.1 mg/kg in feed mix
  Pododerm Swelling, Average Standard Deviation: 55.1 3.3 × 0.01 mm
[2]; Table 1-1, first series (MGWC 47.1, SMG 115.4), 1 mg/kg in feed mix
  Pododerm Swelling, Average Standard Deviation: 73.8 5.7 × 0.01 mm
[2]; Table 1-1, first series (MGWC 47.1, SMG 115.4), 10 mg/kg in feed mix
  Pododerm Swelling, Average Standard Deviation: 70.2 5.1 × 0.01 mm
[2]; Table 1-1, second series (MGWC 48.9, SMG 117.4), 0.1 mg/kg in feed mix
  Pododerm Swelling, Average Standard Deviation: 64.3 6.4 × 0.01 mm
[2]; Table 1-1, second series (MGWC 48.9, SMG 117.4), 1 mg/kg in feed mix
  Pododerm Swelling, Average Standard Deviation: 72.1 5.5 × 0.01 mm
[2]; Table 1-1, second series (MGWC 48.9, SMG 117.4), 10 mg/kg in feed mix
  Pododerm Swelling, Average Standard Deviation: 66.3 3.1 × 0.01 mm
[2]; 0.1 mg/kg in feed mix
  Pododerm Swelling, Average: 63.5 × 0.01 mm
[2]; 1 mg/kg in feed mix
  Pododerm Swelling, Average: 77.0 × 0.01 mm
[2]; 10 mg/kg in feed mix
  Pododerm Swelling, Average: 73.2 × 0.01 mm

— patent US5279835A, “Binder-free orally administrable tablet containing 3-oxygermylpropionic acid” (Sanwa Kagaku Kenkyusho Co. Ltd., priority 1991, dated 1994)
